Patent US8592174B2, “Peptidase substrates” (bioMérieux, S.A., priority 2009, dated 2013)

Experiments:
Type in all cases: cell-based
[1] = test system: Forty-four strains of microorganisms; assay: pH variation detection on modified chromID Coli medium (Example 6), all strains; conditions: 50 mg/l; 24 h 37° C.; conclusion of Example 6
Description: The media were incubated for 24 hours at 37° C., then the spots formed were examined visually.

[2] = test system: Listeria monocytogenes 8812049; assay: Peptidase detection on Columbia medium (Example 5); conditions: 75 mg/l, 48 h 37° C.
Description: (§1) After homogenization, the media were distributed into Petri dishes 55 mm in diameter. A medium acting as a growth control (Columbia) and denoted C was also poured.
(§2) Twenty-two strains of microorganisms were inoculated with a 10 μl calibrated loop according to the three-quadrant streaking method using bacterial suspensions at 0.5 McFarland.

[3] = test system: Acinetobacter baumannii 0604029; assay: Peptidase detection on Columbia medium (Example 5); conditions: 75 mg/l, 48 h 37° C.
Description: as §1, §2

[4] = test system: Citrobacter freundii 0006197; assay: Peptidase detection on Columbia medium (Example 5); conditions: 75 mg/l, 48 h 37° C.
Description: as §1, §2

[5] = test system: Enterococcus faecalis 0008192; assay: Peptidase detection on Columbia medium (Example 5); conditions: 75 mg/l, 48 h 37° C.
Description: as §1, §2

[6] = test system: Enterobacter cloacae 0604040; assay: Peptidase detection on Columbia medium (Example 5); conditions: 75 mg/l, 48 h 37° C.
Description: as §1, §2

Candida albicans 0801025 = assay: Peptidase detection on Columbia medium (Example 5); conditions: 75 mg/l, 48 h 37° C.
Description: as §1, §2

[7] = test system: Staphylococcus epidermidis 0203050; assay: Peptidase detection on Columbia medium (Example 5); conditions: 75 mg/l, 48 h 37° C.
Description: as §1, §2

[8] = test system: Salmonella ser. Typhimurium 0801029; assay: Peptidase detection on Columbia medium (Example 5); conditions: 75 mg/l, 48 h 37° C.
Description: as §1, §2

Candida glabrata 0408083 = assay: Peptidase detection on Columbia medium (Example 5); conditions: 75 mg/l, 48 h 37° C.
Description: as §1, §2

[9] = test system: Yersinia enterocolitica 7605019; assay: Peptidase detection on Columbia medium (Example 5); conditions: 75 mg/l, 48 h 37° C.
Description: as §1, §2

Escherichia coli 0002005 = assay: Peptidase detection on Columbia medium (Example 5); conditions: 75 mg/l, 48 h 37° C.
Description: as §1, §2

[10] = test system: Enterococcus faecium 0610021; assay: Peptidase detection on Columbia medium (Example 5); conditions: 75 mg/l, 48 h 37° C.
Description: as §1, §2

MRSA 0303033 = assay: Peptidase detection on Columbia medium (Example 5); conditions: 75 mg/l, 48 h 37° C.
Description: as §1, §2

[11] = test system: Streptococcus pyogenes 9806380; assay: Peptidase detection on Columbia medium (Example 5); conditions: 75 mg/l, 48 h 37° C.
Description: as §1, §2

[12] = test system: Morganella morganii 9207053; assay: Peptidase detection on Columbia medium (Example 5); conditions: 75 mg/l, 48 h 37° C.
Description: as §1, §2

[13] = test system: Bacillus subtilis 0204038; assay: Peptidase detection on Columbia medium (Example 5); conditions: 75 mg/l, 48 h 37° C.
Description: as §1, §2

[14] = test system: Providencia rettgeri 0706064; assay: Peptidase detection on Columbia medium (Example 5); conditions: 75 mg/l, 48 h 37° C.
Description: as §1, §2

[15] = test system: Serratia marcescens 7303004; assay: Peptidase detection on Columbia medium (Example 5); conditions: 75 mg/l, 48 h 37° C.
Description: as §1, §2

[16] = test system: Staphylococcus aureus 7811049; assay: Peptidase detection on Columbia medium (Example 5); conditions: 75 mg/l, 48 h 37° C.
Description: as §1, §2

[17] = test system: Klebsiella pneumoniae 0008009; assay: Peptidase detection on Columbia medium (Example 5); conditions: 75 mg/l, 48 h 37° C.
Description: as §1, §2

[18] = test system: Serratia marcescens NCTC 10 211; assay: Peptidase detection on Columbia medium (Example 2); parameters: key to Growth: NG: No growth; 0.5: weak growth; 1: moderate growth; 2: good growth; conditions: 40 mg in 400 ml Columbia; 24 h 37° C.
[19] = test system: Enterococcus faecalis NCTC 775; assay: Peptidase detection on Columbia medium (Example 2); parameters: key to Growth: NG: No growth; 0.5: weak growth; 1: moderate growth; 2: good growth; conditions: 40 mg in 400 ml Columbia; 24 h 37° C.
Description: (§3) The 6 media were distributed into Petri dishes 90 mm in diameter, in a proportion of 20 ml per dish.
(§4) Seventeen strains of microorganisms stemming from collections and belonging to various species of bacteria and yeasts are inoculated in spots of approximately 10 000 colony-forming units.
(§5) The media are incubated for 24 hours at 37° C., and then the colonies formed are examined visually, with or without the addition of acid and under a UV lamp at 365 nm.

[20] = test system: Enterococcus faecium NCTC 7 171; assay: Peptidase detection on Columbia medium (Example 2); parameters: key to Growth: NG: No growth; 0.5: weak growth; 1: moderate growth; 2: good growth; key to Fluo. / Color / Color post-acid.: —: no color; conditions: 40 mg in 400 ml Columbia; 24 h 37° C.
[21] = test system: Staphylococcus epidermidis NCTC 11 047; assay: Peptidase detection on Columbia medium (Example 2); parameters: key to Growth: NG: No growth; 0.5: weak growth; 1: moderate growth; 2: good growth; key to Fluo. / Color / Color post-acid.: —: no color; conditions: 40 mg in 400 ml Columbia; 24 h 37° C.
Description: as §3, §4, §5

[22] = test system: Bacillus subtilis NCTC 9 372; assay: Peptidase detection on Columbia medium (Example 2); parameters: key to Growth: NG: No growth; 0.5: weak growth; 1: moderate growth; 2: good growth; key to Fluo. / Color / Color post-acid.: —: no color; conditions: 40 mg in 400 ml Columbia; 24 h 37° C.
Description: as §3, §4, §5

[23] = test system: Staphylococcus aureus NCTC 6 571; assay: Peptidase detection on Columbia medium (Example 2); parameters: key to Growth: NG: No growth; 0.5: weak growth; 1: moderate growth; 2: good growth; key to Fluo. / Color / Color post-acid.: —: no color; conditions: 40 mg in 400 ml Columbia; 24 h 37° C.
Description: as §3, §4, §5

[24] = test system: Pseudomonas aeruginosa NCTC 10 662; assay: Peptidase detection on Columbia medium (Example 2); parameters: key to Growth: NG: No growth; 0.5: weak growth; 1: moderate growth; 2: good growth; conditions: 40 mg in 400 ml Columbia; 24 h 37° C.
Description: as §3, §4, §5

Nc1ccc(C=Cc2ccnc3ccccc23)cc1
toxicity [1]: does not exhibit any particular toxicity

C[C@H](N)C(=O)Nc1ccc(C=Cc2cc[n+](C)c3ccccc23)cc1.Cl.[Cl-] [L-alanyl-4-(4′-amidostyryl)-N-methylquinolinium (dichloride)]
Color [2]: orange | Coloration strength [2]: ++ | Growth ([2]; control C: +): + | Color [3]: orange | Coloration strength [3]: ++ | Growth ([3]; control C: ++): ++ | Color [4]: orange | Coloration strength [4]: ++ | Growth ([4]; control C: ++): ++ | Color [5]: orange | Coloration strength [5]: + | Growth ([5]; control C: +): + | Color [6]: orange | Coloration strength [6]: + | Growth ([6]; control C: ++): ++ | Color (Candida albicans 0801025): − | Coloration strength (Candida albicans 0801025): − | Growth (Candida albicans 0801025; control C: ++): ++ | Color [7]: orange | Coloration strength [7]: + | Growth ([7]; control C: ++): ++ | Color [8]: − | Coloration strength [8]: − | Growth ([8]; control C: ++): ++ | Color (Candida glabrata 0408083): − | Coloration strength (Candida glabrata 0408083): − | Growth (Candida glabrata 0408083; control C: +): + | Color [9]: orange | Coloration strength [9]: ++ | Growth ([9]; control C: +): + | Color (Escherichia coli 0002005): orange | Coloration strength (Escherichia coli 0002005): ++ | Growth (Escherichia coli 0002005; control C: ++): ++ | Color [10]: − | Coloration strength [10]: − | Growth ([10]; control C: +): + | Color (MRSA 0303033): orange | Coloration strength (MRSA 0303033): ++ | Growth (MRSA 0303033; control C: ++): ++ | Color [11]: orange | Coloration strength [11]: + | Growth ([11]; control C: +): + | Color [12]: orange | Coloration strength [12]: ++ | Growth ([12]; control C: ++): ++ | Color [13]: orange | Coloration strength [13]: + | Growth ([13]; control C: ++): ++ | Color [14]: orange | Coloration strength [14]: ++ | Growth ([14]; control C: ++): ++ | Color [15]: orange | Coloration strength [15]: ++ | Growth ([15]; control C: ++): ++ | Color [16]: orange | Coloration strength [16]: + | Growth ([16]; control C: ++): ++ | Color [17]: orange | Coloration strength [17]: ++ | Growth ([17]; control C: ++): ++

C[C@H](N)C(=O)N[C@@H](C)C(=O)N[C@@H](C)C(=O)Nc1ccc(C=Cc2cc[n+](C)c3ccccc23)cc1.Cl.[Cl-] [Tri-Ala-ASQM^+, L-alanyl-L-alanyl-L-alanyl-4-(4′-amidostyryl)-N-methylquinolinium (dichloride)]
Color [18]: Orange | Growth [18]: 2 | Growth [19]: 2 | Color [20]: — | Growth [20]: 2 | Color [21]: — | Growth [21]: 2 | Color [22]: — | Growth [22]: 2 | Color [23]: — | Growth [23]: 2 | Color [24]: Orange | Growth [24]: 2
